“Also recorded” adds a separate entry of the source. * marks the point of attachment. AMC = Cc1cc(=O)oc2cc(N*)ccc12; Boc = CC(C)(C)OC(=O)*
Key:
[1] = test system: Cedar Pollen (Cedar Pollen-Cj Japanese Cedar); test: Measurement of cedar pollen with protease substrates, fluorescence (Example 7); assay type: biochemical; conditions: substrate 10 mM in DMSO, 37° C. 15 minutes, excitation 355 nm
Experimental: • Cedar Pollen (Cedar Pollen-Cj Japanese Cedar) (produced by LSL) • Leu-MCA and Boc-Val-Leu-Lys-MCA as protease substrates (both of them were produced by PEPTIDE INSTITUTE INC)
Cedar pollen was suspended in phosphate buffer to a concentration of 1 mg/ml and the suspension was diluted with phosphate buffer as appropriate. Each of the dilutions in an amount of 45 μL was mixed with 5 μL of the substrate dissolved in DMSO to a concentration of 10 mM, and the resulting mixture was incubated at 37° C. for 15 minutes. Using a plate reader, excitation was carried out at a wavelength of 355 nm, and fluorescence intensity at 460 nm was measured.

[2] = test system: Mite Extract Df (Mite dermatophagoides farinae); test: Protease substrate cleavage by mite extract, fluorescence (Example 9); assay type: biochemical; conditions: substrate 10 mM in DMSO, room temperature overnight, excitation 355 nm
Experimental: • Mite Extract Df (Mite dermatophagoides farinae) (obtained by extracting mites with phosphate buffer and freeze-drying the soluble fragment) (produced by LSL) • Protease Substrates (Met-MCA, Boc-Gln-Ala-Arg-MCA, Boc-Val-Leu-Lys-MCA, Bz-Arg-MCA, Glt-Ala-Ala-Phe-MCA (Glt means glutaryl) (All of them were produced by PEPTIDE INSTITUTE INC)
In phosphate buffer or water, mites were suspended to a concentration of 1 mg/ml, and the suspension was diluted with phosphate buffer as appropriate. Each of the dilutions in an amount of 50 μL was mixed with 5 μL of the substrate dissolved in DMSO to a concentration of 10 mM, and the resulting mixture was incubated at room temperature overnight. Using a plate reader, excitation was carried out at a wavelength of 355 nm, and fluorescence intensity at 460 nm was measured.

[3] = test system: Cedar Pollen Extract; test: Quantification of cedar pollen extract with protease substrates, fluorescence (Example 8); assay type: biochemical, Japanese Cedar; conditions: substrate 10 mM in DMSO, 37° C. 15 minutes, excitation 355 nm
Experimental: • Cedar Pollen Extract (Cedar Pollen Extrace-CJ) (produced by LSL) • Leu-MCA and Boc-Val-Leu-Lys-MCA as protease substrates (both of them were produced by PEPTIDE INSTITUTE INC)
The cedar pollen extract was the centrifugation supernatant obtained by stirring cedar pollen in 0.125 M NaHCO3 (pH8) for 16 hours, and lightly homogenizing the mixture, followed by centrifugation. The extract was suspended in 5 mM borate buffer (pH8.0) containing 0.9% NaCl to a concentration of 666 μg/ml, and the resulting mixture was diluted with phosphate buffer as appropriate. Each of the samples in an amount of 45 μL was mixed with 5 μL of the substrate dissolved in DMSO to a concentration of 10 mM, and the resulting mixture was incubated at 37° C. for 15 minutes. Using a plate reader, excitation was carried out at a wavelength of 355 nm, and fluorescence intensity at 460 nm was measured.

Compound | reaction of substrate with cedar pollen (fluorescence intensity at 460 nm) [1] | cleavage of substrate by mite antigen (fluorescence intensity at 460 nm) [2] | reaction of substrate with cedar pollen extract (fluorescence intensity at 460 nm) [3]
Cl.NC(N)=NCCCC(NC(=O)c1ccccc1)C(=O)Nc1ccc([N+](=O)[O-])cc1 (racemic) [Bz-DL-Arg-pNA.HCl] | reacts | – | –
Cc1cc(=O)oc2cc(NC(=O)[C@H](CCCNC(=N)N)NC(=O)c3ccccc3)ccc12 [Bz-Arg-MCA] | – | not substantially cleaved | –
Cc1cc(=O)oc2cc(NC(=O)C(N)CC(C)C)ccc12 (stereo not drawn) [Leu-MCA] | reacts | – | –
CSCCC(N)C(=O)Nc1ccc2c(C)cc(=O)oc2c1 (stereo not drawn) [Met-MCA] | – | effectively measured | –
Boc-Gln-Ala-Arg-{AMC} | – | effectively measured | –
Boc-Val-Leu-Lys-{AMC} | fluorescence was not dependent on the amount of cedar pollen; also recorded: does not react | effectively measured; also recorded: reacts | fluorescence was not dependent on the amount of cedar pollen
Glt-Ala-Ala-Phe-MCA | – | not substantially cleaved | –
